Source: patent US12589143B2, “Human anti-PD-L1 peptide vaccines and methods of their use” (priority 2019, dated 2026)
“And” between values parts separate entries of the source, which are not always exact repeats. Equal entries are not always repeated. Where no end group is shown, it is not given here.

System: MVF-PD-L1 peptide immunogen
Experiment: Immunogenicity in Balb/c mice, experiment 1 (CT26 WT): ELISA of sera vs each MVF-PD-L1 peptide immunogen
Format: in vivo
Conditions: for Immunogenicity (titers) 1′ Conc. 1:: Balb/c mice
Summary of the method: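 Female Balb/c mice aged 6–8 weeks received 100 μg of each MVF-PD-L1 peptide in Montanide ISA 720 with nor-MDP three times at 3-week intervals. Weekly sera were titered by ELISA against each immunogen on 200 ng/well peptide. Titer was the highest dilution giving absorbance 0.2 after blank subtraction.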

KLLSLIKGVIVHRLEGVEGPSLYRCMISYGGADYKRITVK (KLLSLIKGVIVHRLEGVEGPSLYRCMISYGGADYKRITVK-NH2) [PD-L1(95)]
Immunogenicity (titers) 1′ Conc. 1: (bleed 1Y + 3): 0
Immunogenicity (titers) 1′ Conc. 1: (bleed 2Y + 1): 12800
Immunogenicity (titers) 1′ Conc. 1: (bleed 2Y + 2): 32000
Immunogenicity (titers) 1′ Conc. 1: (bleed 2Y + 3): 32000
Immunogenicity (titers) 1′ Conc. 1: (bleed 3Y + 1): 32000
Immunogenicity (titers) 1′ Conc. 1: (bleed 3Y + 2): 64000
Immunogenicity (titers) 1′ Conc. 1: (bleed 3Y + 3): 32000
ELISA absorbance of sera (bleed 1Y + 3 (1to100), dilution 100): 0.165 and 0.150
ELISA absorbance of sera (bleed 1Y + 3 (1to100), dilution 200): 0.088 and 0.078
ELISA absorbance of sera (bleed 1Y + 3 (1to100), dilution 400): 0.040 and 0.036
ELISA absorbance of sera (bleed 1Y + 3 (1to100), dilution 800): 0.020 and 0.021
ELISA absorbance of sera (bleed 1Y + 3 (1to100), dilution 1,600): 0.008 and 0.007
ELISA absorbance of sera (bleed 1Y + 3 (1to100), dilution 3,200): 0.006
ELISA absorbance of sera (bleed 1Y + 3 (1to100), dilution 6,400): 0.002 and 0.001
ELISA absorbance of sera (bleed 2Y + 1 (1to100), dilution 100): 1.499 and 1.508
ELISA absorbance of sera (bleed 2Y + 1 (1to100), dilution 200): 1.399 and 1.429
ELISA absorbance of sera (bleed 2Y + 1 (1to100), dilution 400): 1.232 and 1.283
ELISA absorbance of sera (bleed 2Y + 1 (1to100), dilution 800): 0.988 and 1.067
ELISA absorbance of sera (bleed 2Y + 1 (1to100), dilution 1,600): 0.768 and 0.793
ELISA absorbance of sera (bleed 2Y + 1 (1to100), dilution 3,200): 0.508 and 0.560
ELISA absorbance of sera (bleed 2Y + 1 (1to100), dilution 6,400): 0.303 and 0.339
ELISA absorbance of sera (bleed 2Y + 1 (1to100), dilution 12,800): 0.235 and 0.201
ELISA absorbance of sera (bleed 2Y + 2 (1to1k), dilution row 100 (Table 5C), dilution 100): 1.553 and 1.522
ELISA absorbance of sera (bleed 2Y + 2 (1to1k), dilution row 200 (Table 5C), dilution 200): 1.327 and 1.281
ELISA absorbance of sera (bleed 2Y + 2 (1to1k), dilution row 400 (Table 5C), dilution 400): 1.035 and 0.982
ELISA absorbance of sera (bleed 2Y + 2 (1to1k), dilution row 800 (Table 5C), dilution 800): 0.777 and 0.736
ELISA absorbance of sera (bleed 2Y + 2 (1to1k), dilution row 1,600 (Table 5C)): 0.502 and 0.525
ELISA absorbance of sera (bleed 2Y + 2 (1to1k), dilution row 3,200 (Table 5C)): 0.294 and 0.299
ELISA absorbance of sera (bleed 2Y + 2 (1to1k), dilution row 6,400 (Table 5C)): 0.171 and 0.156
ELISA absorbance of sera (bleed 2Y + 2 (1to1k), dilution row 12,800 (Table 5C)): 0.085
ELISA absorbance of sera (bleed 2Y + 3 (1to1k), dilution 100): 1.256 and 1.224
ELISA absorbance of sera (bleed 2Y + 3 (1to1k), dilution 200): 1.126 and 1.121
ELISA absorbance of sera (bleed 2Y + 3 (1to1k), dilution 400): 0.933 and 0.900
ELISA absorbance of sera (bleed 2Y + 3 (1to1k), dilution 800): 0.714 and 0.699
ELISA absorbance of sera (bleed 2Y + 3 (1to1k), dilution 1,600): 0.500 and 0.484
ELISA absorbance of sera (bleed 2Y + 3 (1to1k), dilution 3,200): 0.318 and 0.296
ELISA absorbance of sera (bleed 2Y + 3 (1to1k), dilution 6,400): 0.150 and 0.154
ELISA absorbance of sera (bleed 3Y + 1 (1to1k), dilution 100): 1.597 and 1.466
ELISA absorbance of sera (bleed 3Y + 1 (1to1k), dilution 200): 1.387 and 1.308
ELISA absorbance of sera (bleed 3Y + 1 (1to1k), dilution 400): 1.090 and 0.994
ELISA absorbance of sera (bleed 3Y + 1 (1to1k), dilution 800): 0.859 and 0.753
ELISA absorbance of sera (bleed 3Y + 1 (1to1k), dilution 1,600): 0.527 and 0.511
ELISA absorbance of sera (bleed 3Y + 1 (1to1k), dilution 3,200): 0.275 and 0.263
ELISA absorbance of sera (bleed 3Y + 1 (1to1k), dilution 6,400): 0.154 and 0.081
ELISA absorbance of sera (bleed 3Y + 2 (1to1k), dilution 100): 2.076 and 1.906
ELISA absorbance of sera (bleed 3Y + 2 (1to1k), dilution 200): 1.803 and 1.701
ELISA absorbance of sera (bleed 3Y + 2 (1to1k), dilution 400): 1.417 and 1.293
ELISA absorbance of sera (bleed 3Y + 2 (1to1k), dilution 800): 1.116 and 0.979
ELISA absorbance of sera (bleed 3Y + 2 (1to1k), dilution 1,600): 0.685 and 0.664
ELISA absorbance of sera (bleed 3Y + 2 (1to1k), dilution 3,200): 0.357 and 0.342
ELISA absorbance of sera (bleed 3Y + 2 (1to1k), dilution 6,400): 0.201 and 0.205
ELISA absorbance of sera (bleed 3Y + 3 (1to1k), dilution 100): 1.811 and 1.973
ELISA absorbance of sera (bleed 3Y + 3 (1to1k), dilution 200): 1.616 and 1.713
ELISA absorbance of sera (bleed 3Y + 3 (1to1k), dilution 400): 1.228 and 1.346
ELISA absorbance of sera (bleed 3Y + 3 (1to1k), dilution 800): 0.930 and 1.061
ELISA absorbance of sera (bleed 3Y + 3 (1to1k), dilution 1,600): 0.631 and 0.651
ELISA absorbance of sera (bleed 3Y + 3 (1to1k), dilution 3,200): 0.230 and 0.244
ELISA absorbance of sera (bleed 3Y + 3 (1to1k), dilution 6,400): 0.081 and 0.096
